# Laboratory results from patent publication US20230015478A1, “GLP-1 RECEPTOR AGONISTS HAVING IMPROVED PHARMACOLOGICAL AND DRUG DELIVERY PROPERTIES” (priority 2021, published 2023).
# Square brackets hold non-standard residues; d marks the D form. Peptide text beside a SMILES is read from it. Phe(2-NO2) = N[C@@H](Cc1ccccc1[N+](=O)[O-])C(=O)O; Phe(3,4,5-F3) = N[C@@H](Cc1cc(F)c(F)c(F)c1)C(=O)O; Phe(3-CF3) = N[C@@H](Cc1cccc(C(F)(F)F)c1)C(=O)O; Phe(F5) = N[C@@H](Cc1c(F)c(F)c(F)c(F)c1F)C(=O)O; Phe(2-CF3) = N[C@@H](Cc1ccccc1C(F)(F)F)C(=O)O; Phe(2,6-F2) = N[C@@H](Cc1c(F)cccc1F)C(=O)O; Bip = N[C@@H](Cc1ccc(-c2ccccc2)cc1)C(=O)O; Phe(2-CN) = N#Cc1ccccc1C[C@H](N)C(=O)O; Phe(2-Me) = Cc1ccccc1C[C@H](N)C(=O)O; hPhe = N[C@@H](CCc1ccccc1)C(=O)O; Aib = CC(C)(N)C(=O)O
# Biological target: T1, hGLP1 receptor (Homo sapiens, UniProt P43220)
# T1 construct: expressed in transfected cells; host or cells: HEK (human embryonic kidney) cells co-expressing hGLP1 receptor and CRE-Luciferase
# T1 sequence (P43220 24-463): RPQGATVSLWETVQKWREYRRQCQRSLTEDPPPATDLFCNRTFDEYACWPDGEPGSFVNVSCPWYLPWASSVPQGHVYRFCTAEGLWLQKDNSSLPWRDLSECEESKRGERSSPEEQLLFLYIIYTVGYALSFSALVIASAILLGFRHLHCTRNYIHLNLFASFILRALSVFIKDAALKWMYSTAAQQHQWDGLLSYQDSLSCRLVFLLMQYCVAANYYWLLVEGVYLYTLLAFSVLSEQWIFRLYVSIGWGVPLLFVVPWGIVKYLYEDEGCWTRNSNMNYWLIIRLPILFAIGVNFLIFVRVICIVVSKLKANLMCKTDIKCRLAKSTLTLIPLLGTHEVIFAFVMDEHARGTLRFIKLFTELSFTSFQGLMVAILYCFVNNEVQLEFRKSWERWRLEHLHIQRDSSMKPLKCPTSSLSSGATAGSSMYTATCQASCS
# Assay: cAMP HTRF agonist assay in HEK cells co-expressing hGLP1 receptor and CRE-Luciferase
# Format: cell-based
# Conditions: Table 1; cells marked (0% albumin); read-out: cAMP EC50, nM (0% albumin)
# Description: Human embryonic kidney cells (HEK) co-expressing the hGLP1 receptor and CRE-Luciferase construct were used to determine agonist potency in this assay. The cells were thawed briefly at 37° C., transferred to a sterile tube and re-suspended in complete media at 37° C. Cells were centrifuged at 1000 rpm for 5 minutes and cells collected; cells were re-suspended in assay buffer consisting of DPBS (GIBCO) with 500 μM of the phosphodiesterase inhibitor IBMX. […] The optimal cell density was determined to be 1000 cells/well; cells were added to wells in 384-well plates containing appropriate pre-prepared dilutions of compounds (test peptides or reference compound exendin-4), sealed and incubated with CO2 for 30 min. Test peptide solutions were diluted from 10 mM stock solutions; for most peptides an initial run was performed in duplicate from a maximal concentration of 1.0 μM, with 11 concentrations tested for each peptide using serial 1:3 dilution from this maximal concentration. […] The agonist assay was a homogeneous time-resolved fluorescence (HTRF) assay (Cisbio).
# Following incubation of the cells for 30 minutes with test or reference peptides, 5 μL of the cAMP acceptor cAMP-d2, prepared previously as a working solution from frozen stock (1:20 dilution), was added to each well of the assay plate, along with 5 μL of anti-cAMP antibody-cryptate working solution (diluted 1:20 from frozen stock). The wells were incubated for 1 hour at room temperature, and fluorescence was then read at 665 and 615 nm with an Envision reader with TRF laser. Data were saved and analyzed using Prism software (GraphPad). Concentration-response analysis was performed using 4-parameter logistic fits of the resulting data, and EC50 values obtained for each test and reference compound.
row,SMILES,EC50 [nM]
1,"C[C@@H](O)[C@H](NC(=O)CNC(=O)[C@H](CCC(=O)O)NC(=O)C(C)(C)NC(=O)[C@@H](N)Cc1c[nH]cn1)C(=O)N[C@@H](Cc1c(F)cccc1F)C(=O)N[C@H](C(=O)N[C@@H](CO)C(=O)N[C@@H](CC(=O)O)C(=O)N[C@@H](Cc1ccc(-c2ccccc2)cc1)C(=O)N[C@@H](Cc1ccc(-c2ccccc2)cc1)C(N)=O)[C@@H](C)O [3-8, H2N-His-Aib-Glu-Gly-Thr-Phe(2,6F)-Thr-Ser-Asp-Bip-Bip-C(O)NH2] (H-H[Aib]EGT[Phe(2,6-F2)]TSD[Bip][Bip]-NH2)",0.16

# Same assay, conditions: cAMP EC50, nM (0.1% albumin), Table 1; 0.1% albumin
row,SMILES,EC50 [nM]
1,"C[C@@H](O)[C@H](NC(=O)CNC(=O)[C@H](CCC(=O)O)NC(=O)C(C)(C)NC(=O)[C@@H](N)Cc1c[nH]cn1)C(=O)N[C@@H](Cc1ccccc1C(F)(F)F)C(=O)N[C@H](C(=O)N[C@@H](CO)C(=O)N[C@@H](CC(=O)O)C(=O)N[C@@H](Cc1ccc(-c2ccccc2)cc1)C(=O)N[C@@H](Cc1ccc(-c2ccccc2)cc1)C(N)=O)[C@@H](C)O [3-3, H2N-His-Aib-Glu-Gly-Thr-Phe(2-CF3)-Thr-Ser-Asp-Bip-Bip-C(O)NH2] (H-H[Aib]EGT[Phe(2-CF3)]TSD[Bip][Bip]-NH2)",97.1
2,"Cc1ccccc1C[C@H](NC(=O)[C@@H](NC(=O)CNC(=O)[C@H](CCC(=O)O)NC(=O)C(C)(C)NC(=O)[C@@H](N)Cc1c[nH]cn1)[C@@H](C)O)C(=O)N[C@H](C(=O)N[C@@H](CO)C(=O)N[C@@H](CC(=O)O)C(=O)N[C@@H](Cc1ccc(-c2ccccc2)cc1)C(=O)N[C@@H](Cc1ccc(-c2ccccc2)cc1)C(N)=O)[C@@H](C)O [3-4, H2N-His-Aib-Glu-Gly-Thr-Phe(2-CH3)-Thr-Ser-Asp-Bip-Bip-C(O)NH2] (H-H[Aib]EGT[Phe(2-Me)]TSD[Bip][Bip]-NH2)",9.55
3,"C[C@@H](O)[C@H](NC(=O)CNC(=O)[C@H](CCC(=O)O)NC(=O)C(C)(C)NC(=O)[C@@H](N)Cc1c[nH]cn1)C(=O)N[C@@H](Cc1ccccc1[N+](=O)[O-])C(=O)N[C@H](C(=O)N[C@@H](CO)C(=O)N[C@@H](CC(=O)O)C(=O)N[C@@H](Cc1ccc(-c2ccccc2)cc1)C(=O)N[C@@H](Cc1ccc(-c2ccccc2)cc1)C(N)=O)[C@@H](C)O [3-5, H2N-His-Aib-Glu-Gly-Thr-Phe(2-NO2)-Thr-Ser-Asp-Bip-Bip-C(O)NH2] (H-H[Aib]EGT[Phe(2-NO2)]TSD[Bip][Bip]-NH2)",6.67
4,"C[C@@H](O)[C@H](NC(=O)CNC(=O)[C@H](CCC(=O)O)NC(=O)C(C)(C)NC(=O)[C@@H](N)Cc1c[nH]cn1)C(=O)N[C@@H](Cc1ccccc1C#N)C(=O)N[C@H](C(=O)N[C@@H](CO)C(=O)N[C@@H](CC(=O)O)C(=O)N[C@@H](Cc1ccc(-c2ccccc2)cc1)C(=O)N[C@@H](Cc1ccc(-c2ccccc2)cc1)C(N)=O)[C@@H](C)O [3-6, H2N-His-Aib-Glu-Gly-Thr-Phe(2-CN)-Thr-Ser-Asp-Bip-Bip-C(O)NH2] (H-H[Aib]EGT[Phe(2-CN)]TSD[Bip][Bip]-NH2)",33.1
5,"C[C@@H](O)[C@H](NC(=O)CNC(=O)[C@H](CCC(=O)O)NC(=O)C(C)(C)NC(=O)[C@@H](N)Cc1c[nH]cn1)C(=O)N[C@@H](Cc1cccc(C(F)(F)F)c1)C(=O)N[C@H](C(=O)N[C@@H](CO)C(=O)N[C@@H](CC(=O)O)C(=O)N[C@@H](Cc1ccc(-c2ccccc2)cc1)C(=O)N[C@@H](Cc1ccc(-c2ccccc2)cc1)C(N)=O)[C@@H](C)O [3-7, H2N-His-Aib-Glu-Gly-Thr-Phe(3-CF3)-Thr-Ser-Asp-Bip-Bip-C(O)NH2] (H-H[Aib]EGT[Phe(3-CF3)]TSD[Bip][Bip]-NH2)",97.5
6,"C[C@@H](O)[C@H](NC(=O)CNC(=O)[C@H](CCC(=O)O)NC(=O)C(C)(C)NC(=O)[C@@H](N)Cc1c[nH]cn1)C(=O)N[C@@H](Cc1cc(F)c(F)c(F)c1)C(=O)N[C@H](C(=O)N[C@@H](CO)C(=O)N[C@@H](CC(=O)O)C(=O)N[C@@H](Cc1ccc(-c2ccccc2)cc1)C(=O)N[C@@H](Cc1ccc(-c2ccccc2)cc1)C(N)=O)[C@@H](C)O [3-9, H2N-His-Aib-Glu-Gly-Thr-Phe(3,4,5-F)-Thr-Ser-Asp-Bip-Bip-C(O)NH2] (H-H[Aib]EGT[Phe(3,4,5-F3)]TSD[Bip][Bip]-NH2)",44.6
7,"C[C@@H](O)[C@H](NC(=O)CNC(=O)[C@H](CCC(=O)O)NC(=O)C(C)(C)NC(=O)[C@@H](N)Cc1c[nH]cn1)C(=O)N[C@@H](Cc1c(F)c(F)c(F)c(F)c1F)C(=O)N[C@H](C(=O)N[C@@H](CO)C(=O)N[C@@H](CC(=O)O)C(=O)N[C@@H](Cc1ccc(-c2ccccc2)cc1)C(=O)N[C@@H](Cc1ccc(-c2ccccc2)cc1)C(N)=O)[C@@H](C)O [3-10, H2N-His-Aib-Glu-Gly-Thr-Phe(2,3,4,5,6-F)-Thr-Ser-Asp-Bip-Bip-C(O)NH2] (H-H[Aib]EGT[Phe(F5)]TSD[Bip][Bip]-NH2)",1.8
8,"C[C@@H](O)[C@H](NC(=O)CNC(=O)[C@H](CCC(=O)O)NC(=O)C(C)(C)NC(=O)[C@@H](N)Cc1c[nH]cn1)C(=O)N[C@@H](CCc1ccccc1)C(=O)N[C@H](C(=O)N[C@@H](CO)C(=O)N[C@@H](CC(=O)O)C(=O)N[C@@H](Cc1ccc(-c2ccccc2)cc1)C(=O)N[C@@H](Cc1ccc(-c2ccccc2)cc1)C(N)=O)[C@@H](C)O [3-11, H2N-His-Aib-Glu-Gly-Thr-hPhe-Thr-Ser-Asp-Bip-Bip-C(O)NH2] (H-H[Aib]EGT[hPhe]TSD[Bip][Bip]-NH2)",32.6
9,"C[C@@H](O)[C@H](NC(=O)CNC(=O)[C@H](CCC(=O)O)NC(=O)C(C)(C)NC(=O)[C@@H](N)Cc1c[nH]cn1)C(=O)N[C@@H](Cc1ccc(O)cc1)C(=O)N[C@H](C(=O)N[C@@H](CO)C(=O)N[C@@H](CC(=O)O)C(=O)N[C@@H](Cc1ccc(-c2ccccc2)cc1)C(=O)N[C@@H](Cc1ccc(-c2ccccc2)cc1)C(N)=O)[C@@H](C)O [3-12, H2N-His-Aib-Glu-Gly-Thr-Tyr-Thr-Ser-Asp-Bip-Bip-C(O)NH2] (H-H[Aib]EGTYTSD[Bip][Bip]-NH2)",7.3
10,"C[C@@H](O)[C@H](NC(=O)CNC(=O)[C@H](CCC(=O)O)NC(=O)C(C)(C)NC(=O)[C@@H](N)Cc1c[nH]cn1)C(=O)N[C@H](Cc1ccccc1)C(=O)N[C@H](C(=O)N[C@@H](CO)C(=O)N[C@@H](CC(=O)O)C(=O)N[C@@H](Cc1ccc(-c2ccccc2)cc1)C(=O)N[C@@H](Cc1ccc(-c2ccccc2)cc1)C(N)=O)[C@@H](C)O [3-13, H2N-His-Aib-Glu-Gly-Thr-D-Phe-Thr-Ser-Asp-Bip-Bip-C(O)NH2] (H-H[Aib]EGT[dF]TSD[Bip][Bip]-NH2)",57
11,"C[C@@H](O)[C@H](NC(=O)CNC(=O)[C@H](CCC(=O)O)NC(=O)C(C)(C)NC(=O)[C@@H](N)Cc1c[nH]cn1)C(=O)N[C@@H](Cc1c[nH]c2ccccc12)C(=O)N[C@H](C(=O)N[C@@H](CO)C(=O)N[C@@H](CC(=O)O)C(=O)N[C@@H](Cc1ccc(-c2ccccc2)cc1)C(=O)N[C@@H](Cc1ccc(-c2ccccc2)cc1)C(N)=O)[C@@H](C)O [3-14, H2N-His-Aib-Glu-Gly-Thr-Trp-Thr-Ser-Asp-Bip-Bip-C(O)NH2] (H-H[Aib]EGTWTSD[Bip][Bip]-NH2)",67.6
12,"C[C@@H](O)[C@H](NC(=O)CNC(=O)[C@H](CCC(=O)O)NC(=O)C(C)(C)NC(=O)[C@@H](N)Cc1c[nH]cn1)C(=O)N[C@@H](Cc1ccc(-c2ccccc2)cc1)C(=O)N[C@H](C(=O)N[C@@H](CO)C(=O)N[C@@H](CC(=O)O)C(=O)N[C@@H](Cc1ccc(-c2ccccc2)cc1)C(=O)N[C@@H](Cc1ccc(-c2ccccc2)cc1)C(N)=O)[C@@H](C)O [3-15, H2N-His-Aib-Glu-Gly-Thr-Bip-Thr-Ser-Asp-Bip-Bip-C(O)NH2] (H-H[Aib]EGT[Bip]TSD[Bip][Bip]-NH2)",26.2
